Measured values from paper PMC6104039 (Nature Communications, 2018).
Where “and” joins values, the source holds several entries; their conditions need not be identical. Equal entries are not always repeated.

Test system: HEK293 cells
Experiment: Endogenous ceramide, HexCer and SM levels in cells treated 24 h, targeted LC-MS/MS
Assay type: cell-based
Conditions: 24 h
Description: Lipids were then extracted using MTBE/methanol/water as described above.
HEK293 cell culture experiment: Levels of each lipid in P053-treated HEK293 cells were normalised to the mean of the vehicle control group, and each concentration was compared to the control using ANOVA with Dunnett’s post-test. P values were adjusted for multiple comparisons in GraphPad PRISM.
Supplementary Figure 1. Ceramide, SM, and HexCer levels in HEK293 cells treated with
P053. Absolute lipid levels were determined by targeted LC-MS/MS, relative to external
standard curves. Results are mean ± SEM (n = 4) from one of two identical experiments.
Statistically significant results, based on two independent experiments, are as indicated in
Figure 2b-d. Raw data for these figures is provided in Supplementary Data File 1.

Q: Which “reduction of C18:0 ceramide” value (100 nM) does the source give for `C[C@@](N)(CO)CCc1ccc(OCc2ccc(Cl)c(Cl)c2)cc1` [P053, (S)-2-amino-4-(4-(3,4-dichlorobenzyloxy)phenyl)-2-methylbutan-1-ol] here?
A: Its value is 53%.

Q: What about the “C18 HexCer” value of the same compound?
A: Its value is “selectively reduced”.

Q: What about the “C18 SM” value of the same compound?
A: The value was “selectively reduced”.

Q: What about the “C24:0 ceramide” value of the same compound?
A: Its value is “minor increase”.

Q: What about the “other forms of ceramide” value of the same compound?
A: The value was “No other forms of ceramide were reduced”.

Q: What about the “14:0 SM level” value (HEK293 cells, P053 10 nM) of the same compound?
A: Its value is 86.4023 percentage of the vehicle control group and 87.5076 percentage of the vehicle control group and 111.4 percentage of the vehicle control group and 123.229 percentage of the vehicle control group and 107.24 percentage of the vehicle control group and 105.555 percentage of the vehicle control group and 105.116 percentage of the vehicle control group and 89.1667 percentage of the vehicle control group.

Q: What about the “16:0 Cer level” value (HEK293 cells, P053 10 nM) of the same compound?
A: Its value is 108.507 percentage of the vehicle control group and 85.9381 percentage of the vehicle control group and 87.0921 percentage of the vehicle control group and 116.695 percentage of the vehicle control group and 104.33 percentage of the vehicle control group and 104.933 percentage of the vehicle control group and 106.707 percentage of the vehicle control group and 101.056 percentage of the vehicle control group.

Q: And the “16:0 HexCer level” value (HEK293 cells, P053 10 nM)?
A: Its value is 83.0725 percentage of the vehicle control group and 87.9406 percentage of the vehicle control group and 128.577 percentage of the vehicle control group and 99.1213 percentage of the vehicle control group and 108.606 percentage of the vehicle control group and 107.974 percentage of the vehicle control group and 99.8354 percentage of the vehicle control group and 80.4305 percentage of the vehicle control group.

Q: And the “16:0 SM level” value (HEK293 cells, P053 10 nM)?
A: The value was 90.9817 percentage of the vehicle control group and 95.8078 percentage of the vehicle control group and 105.689 percentage of the vehicle control group and 116.265 percentage of the vehicle control group and 95.5779 percentage of the vehicle control group and 88.0621 percentage of the vehicle control group and 88.5464 percentage of the vehicle control group and 91.6422 percentage of the vehicle control group.

Q: What about the “16:1 SM level” value (HEK293 cells, P053 10 nM) of the same compound?
A: The value was 86.5462 percentage of the vehicle control group and 91.7143 percentage of the vehicle control group and 104.066 percentage of the vehicle control group and 119.449 percentage of the vehicle control group and 101.997 percentage of the vehicle control group and 91.4576 percentage of the vehicle control group and 97.8179 percentage of the vehicle control group and 89.4979 percentage of the vehicle control group.

Q: What about the “18:0 Cer level” value (HEK293 cells, P053 10 nM) of the same compound?
A: The value was 75.1597 percentage of the vehicle control group and 77.1381 percentage of the vehicle control group and 83.1016 percentage of the vehicle control group and 101.889 percentage of the vehicle control group and 100.455 percentage of the vehicle control group and 110.825 percentage of the vehicle control group and 90.177 percentage of the vehicle control group and 106.32 percentage of the vehicle control group.

Q: And the “18:0 SM level” value (HEK293 cells, P053 10 nM)?
A: The value was 87.3577 percentage of the vehicle control group and 90.1399 percentage of the vehicle control group and 117.324 percentage of the vehicle control group and 82.3337 percentage of the vehicle control group and 88.9916 percentage of the vehicle control group and 83.1732 percentage of the vehicle control group and 88.0529 percentage of the vehicle control group.

Q: What about the “18:1 SM level” value (HEK293 cells, P053 10 nM) of the same compound?
A: The value was 90.5796 percentage of the vehicle control group and 93.2037 percentage of the vehicle control group and 88.8318 percentage of the vehicle control group and 108.011 percentage of the vehicle control group and 95.5914 percentage of the vehicle control group and 79.238 percentage of the vehicle control group and 78.9032 percentage of the vehicle control group and 84.4686 percentage of the vehicle control group.

Q: And the “22:0 Cer level” value (HEK293 cells, P053 10 nM)?
A: The value was 104.639 percentage of the vehicle control group and 100.078 percentage of the vehicle control group and 73.3754 percentage of the vehicle control group and 101.613 percentage of the vehicle control group and 114.746 percentage of the vehicle control group and 118.068 percentage of the vehicle control group and 114.641 percentage of the vehicle control group and 113.437 percentage of the vehicle control group.

Q: What about the “22:0 HexCer level” value (HEK293 cells, P053 10 nM) of the same compound?
A: The value was 98.6933 percentage of the vehicle control group and 87.3308 percentage of the vehicle control group and 106.948 percentage of the vehicle control group and 113.522 percentage of the vehicle control group and 107.776 percentage of the vehicle control group and 119.187 percentage of the vehicle control group and 120.197 percentage of the vehicle control group and 88.6877 percentage of the vehicle control group.

Q: What about the “22:0 SM level” value (HEK293 cells, P053 10 nM) of the same compound?
A: The value was 77.9336 percentage of the vehicle control group and 82.0524 percentage of the vehicle control group and 72.1049 percentage of the vehicle control group and 117.359 percentage of the vehicle control group and 120.117 percentage of the vehicle control group and 100.918 percentage of the vehicle control group and 103.279 percentage of the vehicle control group and 105.704 percentage of the vehicle control group.

Q: And the “22:1 SM level” value (HEK293 cells, P053 10 nM)?
A: The value was 103.42 percentage of the vehicle control group and 102.614 percentage of the vehicle control group and 99.3902 percentage of the vehicle control group and 105.25 percentage of the vehicle control group and 111.738 percentage of the vehicle control group and 105.36 percentage of the vehicle control group and 88.0812 percentage of the vehicle control group and 91.3619 percentage of the vehicle control group.

Q: What about the “24:0 HexCer level” value (HEK293 cells, P053 10 nM) of the same compound?
A: Its value is 87.0807 percentage of the vehicle control group and 93.0525 percentage of the vehicle control group and 81.1451 percentage of the vehicle control group and 103.31 percentage of the vehicle control group and 112.306 percentage of the vehicle control group and 129.078 percentage of the vehicle control group and 103.585 percentage of the vehicle control group and 92.4822 percentage of the vehicle control group.

Q: And the “24:0 SM level” value (HEK293 cells, P053 10 nM)?
A: Its value is 97.1928 percentage of the vehicle control group and 98.2718 percentage of the vehicle control group and 75.7857 percentage of the vehicle control group and 112.798 percentage of the vehicle control group and 112.334 percentage of the vehicle control group and 114.303 percentage of the vehicle control group and 127.22 percentage of the vehicle control group and 98.002 percentage of the vehicle control group.

Q: What about the “24:1 Cer level” value (HEK293 cells, P053 10 nM) of the same compound?
A: The value was 105.077 percentage of the vehicle control group and 87.804 percentage of the vehicle control group and 67.6975 percentage of the vehicle control group and 121.49 percentage of the vehicle control group and 108.722 percentage of the vehicle control group and 121.479 percentage of the vehicle control group and 112.469 percentage of the vehicle control group and 111.695 percentage of the vehicle control group.

Q: What about the “24:1 HexCer level” value (HEK293 cells, P053 10 nM) of the same compound?
A: Its value is 100.2 percentage of the vehicle control group and 101.908 percentage of the vehicle control group and 107.061 percentage of the vehicle control group and 109.845 percentage of the vehicle control group and 113.174 percentage of the vehicle control group and 115.061 percentage of the vehicle control group and 107.49 percentage of the vehicle control group and 96.3768 percentage of the vehicle control group.
